Reference: article PMC9953660, “Using ΔK280 TauRD Folding Reporter Cells to Screen TRKB Agonists as Alzheimer’s Disease Treatment Strategy” (Biomolecules, 2023)
Read-outs that look alike come from different tables or passages of the source.

Columns and labels:
[1] = biological target: T1, TRKB extracellular domain (TRKB-ECD) (Homo sapiens, UniProt Q16620); set-up: method as in PMID 25143381; conditions: read-out: KD (TRKB-ECD binding affinity), reported value; cited from earlier work
T1 construct: TRKB-ECD (marked in red, C^32-E^429, XP_016870240); His (C); made in house; host or cells: Pichia pastoris

[2] = biological target: T1, TRKB extracellular domain (TRKB-ECD); experiment: Tryptophan fluorescence quenching assay; conditions: Pichia pastoris-expressed TRKB-ECD, 0–1000 nM, excitation 295 nm, emission 330 nm, room temperature; read-out: KD (TRKB-ECD binding affinity)
Protocol: The interaction between the N-terminal extracellular domain of TRKB (TRKB-ECD) and 7,8-DHF (as positive control; [35]), ZN-015, VB-030 or VB-037 was evaluated with tryptophan fluorescence titration. TRKB-ECD-His protein was expressed in the Pichia expression system (Invitrogen) and purified as stated. Intrinsic tryptophan fluorescence spectra with titration of a different concentration of compounds (0–1000 nM) were recorded by fluorescence spectrophotometer F-7000 (Hitachi, Tokyo, Japan), with excitation wavelength 295 nm and emission wavelength in the range of 300–400 nm. The calculation of dissociation constant (KD) between the 7,8-DHF or ZN/VB compound and TRKB was described in a previous report.

[3] = Cell number / cell survival in induced ΔK280 TauRD-DsRed SH-SY5Y cells (high-content); type: cell-based, human; conditions: human; induced SH-SY5Y cells expressing ΔK280 TauRD-DsRed for 6 days, 2–10 μM tested; read-out: IC50 cytotoxicity based on cell number
Protocol: (§1) ΔK280 TauRD-DsRed SH-SY5Y cells were plated in the presence of 10 μM retinoid acid (RA; Sigma-Aldrich) to promote neuronal differentiation. The next day, cells were added with congo red or ZN/VB compounds (2–10 μM) for 8 h pretreatment, followed by inducing ΔK280 TauRD-DsRed expression with doxycycline (2 μg/mL). On day 8, cell nuclei were stained with Hoechst 33342 (0.1 μg/mL; Thermo Scientific), and cell images acquired using ImageXpress Micro Confocal High-Content Imaging System (Molecular Devices, San Jose, CA, USA) with DAPI (4′,6-diamidino-2-phenylindole, for nuclei) and TRITC (tetramethylrhodamine, for DsRed) fluorescence filter sets. To detect ROS changes, 10 μM compound-treated cells were stained with Hoechst 33342 and 2′,7′-dichlorodihydrofluorescein diacetate (H2DCFDA, 10 μM) fluorescein (Invitrogen, Carlsbad, CA, USA), and cell images captured using DAPI and FITC (fluorescein isothiocyanate, for DCF) filters. For assessing differential neurite outgrowth, 10 μM compound-treated cells were fixed (paraformaldehyde, 4%), permeabilized (Triton X-100, 0.3%), and stained with class III β-tubulin (TUBB3, 1:1000) primary antibody (#802001, BioLegend, San Diego, CA, USA), followed by donkey anti-rabbit Alexa Fluor® 555 secondary antibody (1:1000; #A-31572, Invitrogen) and DAPI (0.1 μg/mL; Sigma-Aldrich) stains. The nuclei and neurite images were acquired with DAPI and TRITC fluorescence filters, respectively. All analyses of images were performed using MetaXpress software (Molecular Device).

[4] = biological target: T2, E. coli-expressed ΔK280 TauRD protein (Homo sapiens, UniProt P10636, DEL597-597); experiment: Thioflavin T fluorescence ΔK280 TauRD aggregation assay; type: biochemical; conditions: TauRD protein 20 μM, 48 h at 37 °C; read-out: EC50 inhibiting ΔK280 TauRD aggregation
T2 construct: TauRD (Q^244-E^372 of Tau, NP_005901) aggregation; N-terminal Met (N); made in house; host or cells: E. coli
Protocol: The anti-aggregation activity of congo red (positive control) and ZN/VB compounds (5–20 μM) was assessed using E. coli-expressed ΔK280 TauRD protein [33] and thioflavin T (Sigma-Aldrich) fluorescence assay. The trend of ΔK280 TauRD amyloid aggregate formation depicted with enhanced and red-shifted fluorescence was recorded by a FLx800 microplate fluorescence reader (BioTek Instruments), where the procedure was previously reported in detail.

MTT cell viability assay = type: cell-based; conditions: human
Protocol: Human neuroblastoma SH-SY5Y cells with inducible ΔK280 TauRD-DsRed expression were maintained in DMEM/F-12 supplemented with fetal bovine serum (FBS, 10%) (Thermo Scientific, Waltham, MA, USA), penicillin/streptomycin (100 U/mL), selection antibiotics hygromycin (100 μg/mL) and blasticidin (5 μg/mL) (InvivoGen, San Diego, CA, USA), and 1.5 g/l sodium bicarbonate. Cells were cultured at 37 °C in a 5% CO2 atmosphere. The cell viability of ZN and VB compounds (concentration range: 0.1–100 μM) was evaluated by a 3-(4,5-dimethylthiazol-2-yl)-2,5-diphenyltetrazolium bromide (MTT; Sigma-Aldrich) colorimetric assay. The absorbance at 570 nm was recorded by a Multiskan™ GO Microplate Spectrophotometer (Thermo Scientific).

[5] = system: SH-SY5Y cells expressing ΔK280 TauRD-DsRed; experiment: Cell number / cell survival in induced ΔK280 TauRD-DsRed SH-SY5Y cells (high-content); type: cell-based, human; conditions: induced ΔK280 TauRD-DsRed SH-SY5Y, 2–10 μM
Protocol: as §1

[6] = system: ROS in ΔK280 TauRD-DsRed SH-SY5Y cells; experiment: High-content assessment of cellular ROS (H2DCFDA); type: cell-based, human; conditions: 10 μM; uninduced = 100%, induced untreated 123%; range over compounds
Protocol: as §1, with “For assessing differential neurite outgrowth, 10 μM compound-treated cells were fixed (paraformaldehyde, 4%), permeabilized (Triton X-100, 0.3%), and stained with class III β-tubulin (TUBB3, 1:1000) primary antibody (#802001, BioLegend, San Diego, CA, USA), followed by donkey anti-rabbit Alexa Fluor® 555 secondary antibody (1:1000; #A-31572, Invitrogen) and DAPI (0.1 μg/mL; Sigma-Aldrich) stains.” left out, “All analyses of images were performed using MetaXpress software (Molecular Device).” left out

[7] = DPPH free-radical scavenging assay; type: physicochemical; conditions: 10–160 μM, compared to kaempferol
Protocol: Free-radical scavenging activity of kaempferol (positive control) and ZN/VB compounds (10–160 μM) was measured using a 1,1-diphenyl-2-picrylhydrazyl (DPPH; Sigma-Aldrich) photometric assay as stated. The absorbance at 517 nm was assessed by a Multiskan™ GO Microplate Spectrophotometer (Thermo Scientific). An oxygen radical absorbance capacity (ORAC) assay of kaempferol and ZN/VB compounds (4–100 μM) was conducted according to the manufacturer’s instructions (OxiSelect™; Cell Biolabs, San Diego, CA, USA). The decrease of fluorescence intensity was monitored by a FLx800 microplate fluorescence reader (BioTek Instruments, Winooski, VT, USA). The ORAC activity was quantified as a trolox-equivalent antioxidant capacity.

ΔK280 TauRD-DsRed = biological target: T3, ΔK280 TauRD-DsRed (Homo sapiens, UniProt P10636, DEL597-597); experiment: High-content DsRed fluorescence assay of ΔK280 TauRD-DsRed folding reporter cells; type: cell-based; conditions: 10 μM; untreated cells = 100%; 8 h pretreatment, 6 day Dox induction
T3 construct: TauRD (Q^244-E^372 of Tau, NP_005901) aggregation; expressed in transfected cells; host or cells: SH-SY5Y (Tet-On, doxycycline-inducible)
Protocol: as §1, with “For assessing differential neurite outgrowth, 10 μM compound-treated cells were fixed (paraformaldehyde, 4%), permeabilized (Triton X-100, 0.3%), and stained with class III β-tubulin (TUBB3, 1:1000) primary antibody (#802001, BioLegend, San Diego, CA, USA), followed by donkey anti-rabbit Alexa Fluor® 555 secondary antibody (1:1000; #A-31572, Invitrogen) and DAPI (0.1 μg/mL; Sigma-Aldrich) stains.” left out, “All analyses of images were performed using MetaXpress software (Molecular Device).” left out

T2 sequence (P10636 with tags, fused parts or gaps isoform P10636-8 DEL280-280): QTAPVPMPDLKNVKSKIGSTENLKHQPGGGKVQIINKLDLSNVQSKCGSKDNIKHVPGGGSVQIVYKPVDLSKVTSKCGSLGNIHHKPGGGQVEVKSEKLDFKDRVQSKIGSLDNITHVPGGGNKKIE
T1 sequence (Q16620 32-429): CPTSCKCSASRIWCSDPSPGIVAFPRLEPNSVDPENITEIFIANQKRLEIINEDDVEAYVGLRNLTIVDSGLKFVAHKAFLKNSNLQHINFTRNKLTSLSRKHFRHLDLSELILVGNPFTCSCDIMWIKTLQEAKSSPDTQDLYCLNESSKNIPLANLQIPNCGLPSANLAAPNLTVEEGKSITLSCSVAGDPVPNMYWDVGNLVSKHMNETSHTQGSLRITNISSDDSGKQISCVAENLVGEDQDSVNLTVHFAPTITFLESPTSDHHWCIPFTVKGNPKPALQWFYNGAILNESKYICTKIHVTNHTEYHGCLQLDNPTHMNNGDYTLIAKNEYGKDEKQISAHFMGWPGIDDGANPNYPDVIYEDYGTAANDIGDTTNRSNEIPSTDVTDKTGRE
T3 sequence (P10636 with tags, fused parts or gaps isoform P10636-8 DEL280-280): as the sequence (P10636 with tags, fused parts or gaps isoform P10636-8 DEL280-280) above

Kd [2] [µM] | EC50 [4] [µM] | SMILES | IC50 at 6 days [3] [µM] | IC50 at 24 h (MTT cell viability assay) [µM] | further results
0.0134 ± 0.0084 | – | O=c1cc(-c2ccccc2)oc2c(O)c(O)ccc12 [7,8-DHF, 7,8-dihydroxy flavone, reference compound] | – | – | Kd [1]: 0.0121 ± 0.0016 µM
– | – | Cc1ccc2[nH]c(=O)c(C(=O)/C=C/c3nc4ccccc4[nH]3)c(-c3ccccc3)c2c1 [VB-031, (E)-3-(3-(1H-benzo[d]imidazol-2-yl)acryloyl)-6-methyl-4-phenylquinolin-2(1H)-one] | < 2 | 6 | percentage of cell survival [5]: less than 75%
0.0043 ± 0.0052 | 13.1 | O=[N+]([O-])c1cccc2nc(/C=C/c3cc4ccccc4nc3N3CCOCC3)ccc12 [VB-037, (E)-4-(3-(2-(5-nitroquinolin-2-yl)vinyl)quinolin-2-yl)morpholine] | 23 | > 100 | ROS level (DCF fluorescence) [6]: no effect on reducing ROS; DPPH free radical scavenging activity [7]: very weak DPPH free radical scavenging activity
– | – | O=C(Nc1cccc(S(=O)(=O)NC2=NCCCCC2)c1)c1cc(-c2ccncc2)nc2ccccc12 [VB-041, 2-(pyridin-4-yl)-N-(3-(N-(3,4,5,6-tetrahydro-2H-azepin-7-yl)sulfamoyl)phenyl)quinoline-4-carboxamide] | > 10 | > 100 | –
– | – | O=C(O)COc1cc(O)c2c(=O)cc(-c3ccccc3)oc2c1 [ZN-006, 2-((5-hydroxy-4-oxo-2-phenyl-4H-chromen-7-yl)oxy)acetic acid] | > 10 | > 100 | –
– | – | COc1cccc2oc(C(=O)c3ccccc3)cc12 [ZN-013, (4-methoxybenzofuran-2-yl)(phenyl)methanone] | 27 | > 100 | –
– | – | CCOC(=O)c1cc2c(O)cccc2oc1=O [ZN-014, ethyl 5-hydroxy-2-oxo-2H-chromene-3-carboxylate] | > 10 | – | IC50 at 24 h (MTT cell viability assay; uninduced ΔK280 TauRD-DsRed SH-SY5Y, 0.1–100 μM, 24 h, read-out: IC50 cytotoxicity (MTT)): > 100 µM
– | 13.9 | Nc1c(/N=N/c2ccc(-c3ccc(/N=N/c4cc(S(=O)(=O)O)c5ccccc5c4N)cc3)cc2)cc(S(=O)(=O)O)c2ccccc12 [congo red, Congo red, reference compound] | > 10 | – | DsRed fluorescence (ΔK280 TauRD-DsRed): 114%

SMILES | Kd [2] [µM] | EC50 [4] [µM] | IC50 at 6 days [3] [µM] | IC50 at 24 h (MTT cell viability assay) [µM] | further results
Cc1ccc(-c2cc(-c3ccncc3)nc3ccccc23)cc1 [VB-030, 2-(pyridin-4-yl)-4-(p-tolyl)quinoline] | 0.011 ± 0.0024 | 20.3 | > 10 | > 100 | –
